Assay results as given in ChEMBL document CHEMBL1201862, “PubChem BioAssay data set” (2004).
Calls of active or inactive are those of the source. For most assays here, no stated cut-off is given here; in the data, actives have a measured EC50 and inactives only a lower limit.

How the values were obtained:
[1] = target: Neuropeptide Y receptor type 1 (Homo sapiens, UniProt P25929); experiment: Fluorescence-based dose response cell-based high-throughput screening assay for agonists of NPY-Y1. [Related pubchem assays: 1697 (Screening assay (NPY-Y1 agonists).), 1359 (Screening assay (NPY-Y2 potentiators or agonists).), 1304 (Screening assay (NPY-Y1 potentiators or agonists).), 1704 (Screening assay (CNGC inhibitors).), 1791 (Summary AID.)]; type: functional
[2] = target: T1, Streptokinase A (Streptococcus pyogenes serotype M1, UniProt P10520); experiment: S. pyogenes streptokinase expression inhibitors, potency, dose response, plasminogen activation absorbance, OD405 (AID 1914); type: functional, Streptococcus pyogenes M1 GAS;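 further: secreted streptokinase activity via plasminogen activation per viability signal from cell pellet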
T1 sequence (P10520 whole entry): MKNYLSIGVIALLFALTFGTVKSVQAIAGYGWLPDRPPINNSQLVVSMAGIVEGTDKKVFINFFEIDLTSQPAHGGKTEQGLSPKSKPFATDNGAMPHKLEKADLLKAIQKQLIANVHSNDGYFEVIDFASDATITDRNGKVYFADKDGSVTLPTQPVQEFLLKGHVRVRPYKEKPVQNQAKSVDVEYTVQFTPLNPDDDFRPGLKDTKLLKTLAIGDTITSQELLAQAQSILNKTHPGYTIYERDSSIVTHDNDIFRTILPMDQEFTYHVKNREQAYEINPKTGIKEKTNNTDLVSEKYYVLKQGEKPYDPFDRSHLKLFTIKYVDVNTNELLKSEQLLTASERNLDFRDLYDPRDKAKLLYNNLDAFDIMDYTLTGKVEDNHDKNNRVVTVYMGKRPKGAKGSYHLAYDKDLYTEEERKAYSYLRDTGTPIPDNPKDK

[3] = target: Neuropeptide Y receptor type 2 (Homo sapiens, UniProt P49146); experiment: Fluorescence-based counterscreen for agonists of NPY-Y1: cell-based high-throughput dose response assay for agonists of NPY-Y2.; type: functional
[4] = target: T2, Long-chain-fatty-acid--AMP ligase FadD28 (Mycobacterium tuberculosis, UniProt P9WQ59); experiment: Fluorescence polarization aasay to screen for inhibitors that compete for the binding of FadD28 to a bisubstrate Measured in Biochemical System Using Plate Reader - 2147-01_Inhibitor_Dose_CherryPick_Activity.; type: functional, Mycobacterium tuberculosis H37Rv
T2 sequence (P9WQ59 whole entry): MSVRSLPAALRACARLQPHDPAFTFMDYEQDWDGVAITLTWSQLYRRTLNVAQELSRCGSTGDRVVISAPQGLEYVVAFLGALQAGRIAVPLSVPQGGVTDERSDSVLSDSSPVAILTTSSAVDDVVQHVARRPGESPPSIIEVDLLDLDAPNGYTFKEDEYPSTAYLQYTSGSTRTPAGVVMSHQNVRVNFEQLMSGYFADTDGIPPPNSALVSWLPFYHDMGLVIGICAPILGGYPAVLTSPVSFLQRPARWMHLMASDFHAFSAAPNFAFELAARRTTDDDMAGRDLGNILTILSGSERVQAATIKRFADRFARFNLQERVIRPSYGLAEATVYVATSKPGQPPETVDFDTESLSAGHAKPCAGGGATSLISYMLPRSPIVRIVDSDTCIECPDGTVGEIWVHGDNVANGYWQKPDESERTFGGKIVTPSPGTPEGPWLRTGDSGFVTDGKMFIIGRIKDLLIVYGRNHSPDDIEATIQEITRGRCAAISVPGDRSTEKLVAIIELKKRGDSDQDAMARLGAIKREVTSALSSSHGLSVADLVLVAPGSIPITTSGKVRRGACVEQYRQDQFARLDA

[5] = Luminescence Cell-Based Dose Confirmation to Identify Activators of 5'UTR Stem-Loop Driven Alpha-Synuclein mRNA Translation in H4 Neuroglioblastoma Cells. [Related pubchem assays: 1829 (Project Summary), 1814 (Primary HTS)]; type: functional
[6] = Luminescence Cell-Based Dose Response to Identify Activators of 5'UTR Stem-Loop Driven Prion Protein mRNA Translation in H4-C Neuroglioblastoma Cells. [Related pubchem assays: 1829 (Project Summary), 1814 (Primary HTS)]; type: functional
[7] = Luminescence Cell-Based Dose Response to Identify Activators of Luciferase Translation or Activity in H4-C Neuroglioblastoma Cells. [Related pubchem assays: 1829 (Project Summary), 1814 (Primary HTS)]; type: functional
[8] = Luminescence Cell-Based Dose Response HTS to Identify Activators of Luciferase Translation or Activity in H4 […] Cells. [Related pubchem assays: 1829 (Project Summary), 1814 (Primary HTS)]; type: functional
[9] = system: H4; experiment: Luminescence Cell-Based Dose Response HTS to Identify Activators of 5'UTR Stem-Loop Driven Prion Protein mRNA Translation in H4 Neuroglioblastoma Cells. [Related pubchem assays: 1829 (Project Summary), 1814 (Primary HTS)]; type: functional; settings: Homo sapiens
[10] = Luminescence Cell-Based Dose Confirmation HTS to Identify Inhibitors of Polyadenylation.; type: functional

Chain of Neuropeptide Y receptor type 2 (P49146 whole entry): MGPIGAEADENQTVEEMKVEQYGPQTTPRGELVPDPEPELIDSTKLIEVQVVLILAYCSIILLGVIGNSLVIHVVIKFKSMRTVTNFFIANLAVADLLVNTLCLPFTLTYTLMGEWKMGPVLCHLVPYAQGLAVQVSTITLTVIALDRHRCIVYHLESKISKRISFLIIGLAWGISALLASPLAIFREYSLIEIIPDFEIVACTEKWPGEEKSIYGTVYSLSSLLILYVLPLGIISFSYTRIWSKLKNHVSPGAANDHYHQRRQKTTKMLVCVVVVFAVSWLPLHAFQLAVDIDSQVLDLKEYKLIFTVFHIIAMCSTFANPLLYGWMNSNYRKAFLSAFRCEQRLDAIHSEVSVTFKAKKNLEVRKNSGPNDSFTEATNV
Chain of Neuropeptide Y receptor type 1 (P25929 whole entry): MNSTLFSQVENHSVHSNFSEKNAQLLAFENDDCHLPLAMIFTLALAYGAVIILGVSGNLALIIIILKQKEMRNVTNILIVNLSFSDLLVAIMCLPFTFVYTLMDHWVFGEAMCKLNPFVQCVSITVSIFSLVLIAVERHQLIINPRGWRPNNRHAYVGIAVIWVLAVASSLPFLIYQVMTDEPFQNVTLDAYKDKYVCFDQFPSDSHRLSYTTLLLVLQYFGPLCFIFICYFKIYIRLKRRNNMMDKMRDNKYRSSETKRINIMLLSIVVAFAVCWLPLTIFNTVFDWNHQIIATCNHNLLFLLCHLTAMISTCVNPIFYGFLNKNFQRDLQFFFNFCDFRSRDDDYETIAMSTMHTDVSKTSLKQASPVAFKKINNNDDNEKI

Structure (SMILES): CCOc1ccc(NC(=S)NNC(=S)Nc2cccc(C(F)(F)F)c2)cc1
- EC50 [1]: 27.3 µM (not active)
- EC50 [2]: > 150 µM (not active)
- EC50 [3]: > 35.4 µM (not active)

Structure (SMILES): O=C(O)c1ccc(N/N=C/C(Br)=C/c2ccccc2)cc1
- AC50 [4]: > 100 µM (inactive)
- EC50 [5]: 0.425 µM (active)
- EC50 [6]: 0.316 µM (active)
- EC50 [7]: 0.368 µM (active)
- EC50 [8]: < 0.1 µM (active)
- EC50 [9]: 7.2 µM (active)

Structure (SMILES): C/C(=N\NC(=O)COc1ccc(C)cc1[N+](=O)[O-])c1cccs1
- EC50 [10]: > 120 µM (not active)
